From patent US11851411B2, “Herbicidal compounds” (SYNGENTA CROP PROTECTION AG, priority 2018, dated 2023)

Legend:
Type in all cases: in vivo
[1] = tested on: Abutilon theophrasti (ABUTH); assay: Glasshouse herbicide test, pre-emergence; conditions: PRE Application; 500 g/h; evaluated after 13 days
Description: (§1) Seeds of a variety of test species are shown in standard soil in pots (Lolium perenne (LOLPE), Amaranthus retoflexus (AMARE), Abutilon theophrasti (ABUTH), Setaria faberi (SETFA), Echinochloa crus-galli (ECHCG), Ipomoea hederacea (IPOHE)). After cultivation for one day (pre-emergence) or after 8 days cultivation (post-emergence) under controlled conditions in a glasshouse (at 24/16° C., day/night; 14 hours light; 65% humidity), the plants are sprayed with an aqueous spray solution derived from the formulation of the technical active ingredient in acetone/water (50:50) solution containing 0.5% Tween 20 (polyoxyethelyene sorbitan monolaurate, CAS RN 9005-64-5). Compounds are applied at 500 g/h. The test plants are then grown in a glasshouse under controlled conditions in a glasshouse (at 24/16° C., day/night; 14 hours light; 65% humidity) and watered twice daily. After 13 days for pre and post-emergence, the test is evaluated for the percentage damage caused to the plant. The biological activities are shown in the following table on a five point scale (5=80-100%; 4=60-79%; 3=40-59%; 2=20-39%; 1=0-19%).

Setaria faberi (SETFA) [2] = assay: Glasshouse herbicide test, pre-emergence; conditions: PRE Application; 500 g/h; evaluated after 13 days
Description: as §1

[3] = tested on: Ipomoea hederacea (IPOHE); assay: Glasshouse herbicide test, pre-emergence; conditions: PRE Application; 500 g/h; evaluated after 13 days
Description: as §1

[4] = tested on: Amaranthus retoflexus (AMARE); assay: Glasshouse herbicide test, pre-emergence; conditions: PRE Application; 500 g/h; evaluated after 13 days
Description: as §1

[5] = tested on: Echinochloa crus-galli (ECHCG); assay: Glasshouse herbicide test, pre-emergence; conditions: PRE Application; 500 g/h; evaluated after 13 days
Description: as §1

[6] = tested on: Abutilon theophrasti (ABUTH); assay: Glasshouse herbicide test, post-emergence; conditions: POST Application; 500 g/h; evaluated after 13 days
Description: as §1

Setaria faberi (SETFA) [7] = assay: Glasshouse herbicide test, post-emergence; conditions: POST Application; 500 g/h; evaluated after 13 days
Description: as §1

[8] = tested on: Ipomoea hederacea (IPOHE); assay: Glasshouse herbicide test, post-emergence; conditions: POST Application; 500 g/h; evaluated after 13 days
Description: as §1

[9] = tested on: Amaranthus retoflexus (AMARE); assay: Glasshouse herbicide test, post-emergence; conditions: POST Application; 500 g/h; evaluated after 13 days
Description: as §1

[10] = tested on: Echinochloa crus-galli (ECHCG); assay: Glasshouse herbicide test, post-emergence; conditions: POST Application; 500 g/h; evaluated after 13 days
Description: as §1

SMILES	percentage damage caused to the plant, five point scale, ABUTH [1]	percentage damage caused to the plant, five point scale, SETFA (Setaria faberi (SETFA) [2])	percentage damage caused to the plant, five point scale, IPOHE [3]	percentage damage caused to the plant, five point scale, AMARE [4]	percentage damage caused to the plant, five point scale, ECHCG [5]	percentage damage caused to the plant, five point scale, ABUTH [6]	percentage damage caused to the plant, five point scale, SETFA (Setaria faberi (SETFA) [7])	percentage damage caused to the plant, five point scale, IPOHE [8]	percentage damage caused to the plant, five point scale, AMARE [9]	percentage damage caused to the plant, five point scale, ECHCG [10]
CCCn1nnnc1NC(=O)c1ccc(S(C)(=O)=O)c(N(C)OC)c1Cl [Compound 1.045]	5 (5=80-100%)	5 (5=80-100%)	5 (5=80-100%)	5 (5=80-100%)	5 (5=80-100%)	5 (5=80-100%)	5 (5=80-100%)	5 (5=80-100%)	5 (5=80-100%)	5 (5=80-100%)
CCn1nnnc1NC(=O)c1ccc(S(C)(=O)=O)c(N(OC)C(C)=O)c1Cl [Compound 1.008]	5 (5=80-100%)	5 (5=80-100%)	5 (5=80-100%)	5 (5=80-100%)	5 (5=80-100%)	5 (5=80-100%)	5 (5=80-100%)	5 (5=80-100%)	5 (5=80-100%)	5 (5=80-100%)
CON(C(=O)C(C)C)c1c(C(F)(F)F)ccc(C(=O)Nc2nnnn2C)c1Cl [Compound 1.049]	5 (5=80-100%)	5 (5=80-100%)	5 (5=80-100%)	5 (5=80-100%)	5 (5=80-100%)	5 (5=80-100%)	5 (5=80-100%)	5 (5=80-100%)	5 (5=80-100%)	5 (5=80-100%)
CON(C)c1c(C(F)(F)F)ccc(C(=O)Nc2nnnn2C)c1Cl [Compound 1.037]	5 (5=80-100%)	5 (5=80-100%)	5 (5=80-100%)	5 (5=80-100%)	5 (5=80-100%)	5 (5=80-100%)	5 (5=80-100%)	5 (5=80-100%)	5 (5=80-100%)	5 (5=80-100%)
CON(C(=O)C(C)(C)C)c1c(C(F)(F)F)ccc(C(=O)Nc2nnnn2C)c1F [Compound 1.063]	5 (5=80-100%)	5 (5=80-100%)	2 (2=20-39%)	5 (5=80-100%)	5 (5=80-100%)	5 (5=80-100%)	5 (5=80-100%)	4 (4=60-79%)	5 (5=80-100%)	5 (5=80-100%)
CON(C(=O)OC(C)(C)C)c1c(S(C)(=O)=O)ccc(C(=O)Nc2nnnn2C)c1Cl [Compound 1.031]	5 (5=80-100%)	5 (5=80-100%)	5 (5=80-100%)	5 (5=80-100%)	5 (5=80-100%)	5 (5=80-100%)	5 (5=80-100%)	5 (5=80-100%)	5 (5=80-100%)	5 (5=80-100%)
CCC(=O)N(OC)c1c(C(F)(F)F)ccc(C(=O)Nc2nnnn2C)c1Cl [Compound 1.050]	5 (5=80-100%)	5 (5=80-100%)	4 (4=60-79%)	5 (5=80-100%)	5 (5=80-100%)	5 (5=80-100%)	5 (5=80-100%)	5 (5=80-100%)	5 (5=80-100%)	5 (5=80-100%)
CCON(C)c1c(S(C)(=O)=O)ccc(C(=O)Nc2nnnn2CC)c1Cl [Compound 1.055]	5 (5=80-100%)	5 (5=80-100%)	5 (5=80-100%)	5 (5=80-100%)	5 (5=80-100%)	5 (5=80-100%)	5 (5=80-100%)	5 (5=80-100%)	5 (5=80-100%)	5 (5=80-100%)
CON(C)c1c(C(F)(F)F)ccc(C(=O)Nc2nnnn2C)c1F [Compound 1.065]	5 (5=80-100%)	5 (5=80-100%)	5 (5=80-100%)	5 (5=80-100%)	5 (5=80-100%)	5 (5=80-100%)	5 (5=80-100%)	5 (5=80-100%)	5 (5=80-100%)	5 (5=80-100%)
CCCn1nnnc1NC(=O)c1ccc(S(C)(=O)=O)c(N(OC)C(C)=O)c1Cl [Compound 1.009, 3-[acetyl(methoxy)amino]-2-chloro-4-methylsulfonyl-N-(1-propyltetrazol-5-yl)benzamide]	5 (5=80-100%)	4 (4=60-79%)	5 (5=80-100%)	5 (5=80-100%)	5 (5=80-100%)	5 (5=80-100%)	5 (5=80-100%)	5 (5=80-100%)	5 (5=80-100%)	5 (5=80-100%)
